Laboratory results as given in patent publication EP4759807A1, “PROTEOLYSIS TARGETING CHIMERA COMPOUND FOR DEGRADING IRAK4 AND USE THEREOF” (Shenzhen Zhongge Biological Technology Co., Ltd., priority 2023, dated 2025).
Where a name gives a salt, the structure may show the parent alone.

Target: T1, IRAK4 (Homo sapiens, UniProt Q9NWZ3)
T1 sequence (Q9NWZ3 1-460): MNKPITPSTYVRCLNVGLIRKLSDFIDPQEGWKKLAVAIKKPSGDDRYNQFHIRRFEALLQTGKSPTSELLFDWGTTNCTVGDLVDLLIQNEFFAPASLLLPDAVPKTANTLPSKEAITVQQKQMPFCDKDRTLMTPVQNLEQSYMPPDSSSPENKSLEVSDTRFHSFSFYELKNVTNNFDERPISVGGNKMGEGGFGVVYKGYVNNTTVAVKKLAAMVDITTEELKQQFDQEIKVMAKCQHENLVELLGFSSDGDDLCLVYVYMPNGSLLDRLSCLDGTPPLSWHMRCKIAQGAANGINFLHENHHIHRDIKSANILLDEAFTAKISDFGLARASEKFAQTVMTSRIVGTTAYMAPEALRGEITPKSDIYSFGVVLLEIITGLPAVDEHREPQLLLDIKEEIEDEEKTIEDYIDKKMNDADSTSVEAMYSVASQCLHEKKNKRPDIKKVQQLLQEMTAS
Experiment: Hibit fluorescence detection of proteolysis (IRAK4-HiBiT in HEK293T cells)
Assay type: cell-based
Set-up: host or cells: HEK293T (ATCC)
Conditions: for Dmax: HEK-293T; for DC50: IRAK4-HiBiT, HEK293T cells, 24 h
In short: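 Degradation read-out: luminescence from lytic HiBiT detection (15 min, room temperature) after 24 h compound exposure (37 °C, 5% CO2) of HEK293T cells transiently expressing IRAK4 fused to a HiBiT tag. Data fitted to a bell-shaped four-parameter model giving two EC50 values.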

Row | Structure (SMILES) | Dmax [%] | DC50 [nM]
1 | Cn1c(=O)n(C2CCC(=O)NC2=O)c2cccc(N3CCN(C4CCN(C[C@H]5CC[C@H](n6cc(-n7cc(-n8ccc9cc(C(N)=O)cnc98)nn7)c(C(F)F)n6)CC5)CC4)CC3)c21 (some centres unmarked) [Example 104, 1-(1-(3-(difluoromethyl)-1-((1r,4r)-4-((4-(4-(1-(2,6-dioxopiperidin-3-yl)-3-methyl-2-oxo-2,3-dihydro-1H-benzo[d]imidazol-4-yl)piperazin-1-yl)piperidin-1-yl)methyl)cyclohexyl)-1H-pyrazol-4-yl)-1H-1,2,3-triazol-4-yl)-1H-pyrrolo[2,3-b]pyridine-5-carboxamide] | > 80 | < 0.5
2 | Cn1c(=O)n(C2CCC(=O)NC2=O)c2cccc(N3CC4(CCN(C[C@H]5CC[C@H](n6cc(-n7cc(-n8ccc9cc(C(N)=O)cnc98)nn7)c(C(F)F)n6)CC5)CC4)C3)c21 (some centres unmarked) [Example 105, 1-(1-(3-(difluoromethyl)-1-((1r,4r)-4-((2-(1-(2,6-dioxopiperidin-3-yl)-3-methyl-2-oxo-2,3-dihydro-1H-benzo[d]imidazol-4-yl)-2,7-diazaspiro[3.5]non-7-yl)methyl)cyclohexyl)-1H-pyrazol-4-yl)-1H-1,2,3-triazol-4-yl)-1H-pyrrolo[2,3-b]pyridine-5-carboxamide] | > 80 | < 0.5
3 | Cn1c(=O)n(C2CCC(=O)NC2=O)c2cccc(C#CCOC3CCN(C[C@H]4CC[C@H](n5cc(-n6cc(-n7ccc8cc(C(N)=O)cnc87)nn6)c(C(F)F)n5)CC4)CC3)c21 (some centres unmarked) [Example 106, 1-{1-[3-(difluoromethyl)-1-[(1r,4r)-4-{[4-({3-[1-(2,6-dioxohexahydropyridin-3-yl)-3-methyl-2-oxobenzo[d]imidazol-4-yl]prop-2-ynyl}oxy)hexahydropyridin-1-yl]methyl}cyclohexyl]pyrazol-4-yl]-1,2,3-triazol-4-yl}pyrrolo[2,3-b]pyridine-5-carboxamide] | 60 to 70 | < 0.5
4 | Cn1c(=O)n(C2CCC(=O)NC2=O)c2cccc(NC(=O)CN3CCN(C[C@H]4CC[C@H](n5cc(-n6cc(-n7ccc8cc(C(N)=O)cnc87)nn6)c(C(F)F)n5)CC4)CC3)c21 (some centres unmarked) [Example 107, 1-(1-(3-(difluoromethyl)-1-((1r,4r)-4-((4-(2-((1-(2,6-dioxopiperidin-3-yl)-3-methyl-2-oxo-2,3-dihydro-1H-benzo[d]imidazol-4-yl)amino)-2-oxoethyl)piperazin-1-yl)methyl)cyclohexyl)-1H-pyrazol-4-yl)-1H - 1,2,3-triazol-4-yl)-1H-pyrrolo[2,3-b]pyridine-5-carboxamide] | > 80 | 1 to 5
5 | Cn1c(=O)n(C2CCC(=O)NC2=O)c2cccc(N3CCC4(CCN(C[C@H]5CC[C@H](n6cc(-n7cc(-c8cnn9ccc(NCC%10CC%10)nc89)nn7)c(C(F)F)n6)CC5)CC4)C3)c21 (some centres unmarked) [Example 109] | > 80 | 0.5 to 1
6 | Cn1c(=O)n(C2CCC(=O)NC2=O)c2cccc(N3CCN(C4CCN(C[C@H]5CC[C@H](n6cc(-n7cc(-c8cnn9ccc(NCC%10CC%10)nc89)nn7)c(C(F)F)n6)CC5)CC4)CC3)c21 (some centres unmarked) [Example 110, 3-(4-(4-(1-(((1r,4r)-4-(4-(5-((cyclopropylmethyl)amino)pyrazolo[1,5-a]pyrimidin-3-yl)-1H-1,2,3-triazol-1-yl)-3-(difluoromethyl)-1H-pyrazol-1-ylcyclohexyl)methyl)piperidin-4-yl)piperazin-1-yl)3-methyl-2-oxo-2,3-dihydro-1H-benzo[d]imidazol-1-yl)piperidine-2,6-dione] | > 80 | < 0.5
7 | Cn1c(=O)n(C2CCC(=O)NC2=O)c2cccc(N3CCC(N4CCN(C[C@H]5CC[C@H](n6cc(-n7cc(-c8cnn9ccc(N%10CCS(=O)(=O)CC%10)nc89)nn7)c(C(F)F)n6)CC5)CC4)CC3)c21 (some centres unmarked) [Example 111, 3-(4-(4-(((1r,4r)-4-(3-(difluoromethyl)-4-(4-(5-(1,1-dioxodimorpholinyl)pyrazolo[1,5-a]pyrimidin-3-yl)-1H-1,2,3-triazol-1-yl)-1H-pyrazol-1-ylcyclohexyl)methyl)piperazin-1-yl)piperidin-1-yl)-3-methyl-2-oxo-2,3-dihydro-1H-benzo[d]imidazol-1-yl)pyridine-2,6-dione] | > 80 | 0.5 to 1
8 | Cn1c(=O)n(C2CCC(=O)NC2=O)c2cccc(N3CCC4(CCN(C[C@H]5CC[C@H](n6cc(-n7cc(-c8cnn9ccc(N%10CCS(=O)(=O)CC%10)nc89)nn7)c(C(F)F)n6)CC5)CC4)CC3)c21 (some centres unmarked) [Example 112] | > 80 | < 0.5
9 | Cn1c(=O)n(C2CCC(=O)NC2=O)c2cccc(N3CCC(N4CCN(C[C@H]5CC[C@H](n6cc(-n7cc(-c8cnn9ccc(NCC%10CC%10)nc89)nn7)c(C(F)F)n6)CC5)CC4)CC3)c21 (some centres unmarked) [Example 114] | > 80 | < 0.5
10 | Cn1c(=O)n(C2CCC(=O)NC2=O)c2cccc(N3CCN(C4CCN(C[C@H]5CC[C@H](n6cc(-n7cc(-c8cnn9ccc(N%10CCC[C@H](N)C%10)nc89)nn7)c(C(F)F)n6)CC5)CC4)CC3)c21 (stereo partly drawn) [Example 117, 3-{4-[4-(1-{[(1S,4r)-4-[3-(difluoromethyl)-4-(4-{5-[(3S)-3-aminohexahydropyridin-1-yl]pyrazolo[1,5-a]pyrimidin-3-yl}-1,2,3-triazol-1-yl)pyrazol-1-yl]cyclohexyl]methyl}hexahydropyridin-4-yl)piperazin-1-yl]-3-methyl-2-oxobenzo[d]imidazol-1-yl}hexahydropyridine-2,6-dione hydrochloride] | > 80 | 1 to 5
11 | Cn1c(=O)n(C2CCC(=O)NC2=O)c2cccc(N3CCC4(CCN(C[C@H]5CC[C@H](n6cc(-n7cc(-c8cnn9ccc(N%10CCC(C)(O)CC%10)nc89)nn7)c(C(F)F)n6)CC5)CC4)CC3)c21 (some centres unmarked) [Example 121] | > 80 | < 0.5
12 | Cn1c(=O)n(C2CCC(=O)NC2=O)c2cccc(N3CCC4(CCN(C[C@H]5CC[C@H](n6cc(-n7cc(-c8cnn9ccc(N%10CCNCC%10)nc89)nn7)c(C(F)F)n6)CC5)CC4)CC3)c21 (some centres unmarked) [Example 129, 3-(4-(9-(((1r,4r)-4-(3-(difluoromethyl)-4-(4-(5-(piperazin-1-yl)pyrazolo[1,5-a]pyrimidin-3-yl)-1H-1,2,3-triazol-1-yl)-1H-pyrazol-1-yl)cyclohexyl)methyl)-3,9-diazaspiro[5.5]undecan-3-yl)-3-methyl-2-oxo-2,3-dihydro-1H-benzo[d]imidazol-1-yl)piperidine-2,6-dione dihydrochloride] | > 80 | < 0.5
13 | Cn1c(=O)n(C2CCC(=O)NC2=O)c2cccc(N3CCC4(CCN(C[C@H]5CC[C@H](n6cc(-n7cc(-c8cnn9ccc(N%10CCNCC%10)nc89)nn7)c(C(F)F)n6)CC5)CC4)C3)c21 (some centres unmarked) [Example 130, 3-(4-(8-(((1r,4r)-4-(3-(difluoromethyl)-4-(4-(5-(piperazin-1-yl)pyrazolo[1,5-a]pyrimidin-3-yl)-1H-1,2,3-triazol-1-yl)-1H-pyrazol-1-yl)cyclohexyl)methyl)-2,8-diazaspiro[4.5]dec-2-yl)-3-methyl-2-oxo-2,3-dihydro-1H-benzo[d]imidazol-1-yl)piperidine-2,6-dione dihydrochloride] | > 80 | 0.5 to 1
